Assay results: ChEMBL document CHEMBL6182856, “Novel one-/two-photon excited carbazole/quinolinium photosensitizers manifest nanomolar and hypoxia-resistant tumor photodynamic therapy by accelerating apoptosis, ferroptosis, and autophagy” (Eur J Med Chem, 2025)
The source made the active and inactive calls. No cut-off for these calls is given here.

How the values were obtained:
A549 [1] = experiment: Induction of mitochondrial damage in human A549 cells assessed as increase in ratio of green to red fluorescence intensity measured upon light irradiation by JC-1 staining based fluorescence analysis relative to control; assay type: functional
[2] = Photosensitizing ability of the compound in methanol assessed as time duration of singlet oxygen production measured upon irradiation by DPBF based assay; assay type: functional
[3] = Photosensitizing ability of the compound assessed as superoxide radical production measured upon irradiation by DHE probe based assay; assay type: functional
[4] = Photosensitizing ability of the compound assessed as superoxide radical production measured upon irradiation by electron spin resonance analysis; assay type: functional
[5] = Photosensitizing ability of the compound assessed as hydroxyl radical production measured upon irradiation by electron spin resonance analysis; assay type: functional
[6] = Photostability of the compound measured after 30 mins of light irradiation by UV absorption based analysis; assay type: physicochemical; settings: 0.5 h
[7] = Phototoxicity against human A549 cells assessed as inhibition of cell growth at 1.56 to 400 nM incubated for 24 hrs measured under normoxia conditions and after one-photon excitation upon irradiation with light at 520 nm, 200 mW/cm2 for 10 mins by MTT assay relative to control; assay type: functional; settings: dose 1.56-400 nM
HT-29 = experiment: Cytotoxicity against human HT-29 cells assessed as inhibition of cell growth incubated for 24 hrs measured under normoxia conditions by MTT assay; assay type: functional, cell-based; settings: HT-29, 24 h
[8] = Cytotoxicity against human HFL1 cells assessed as inhibition of cell growth incubated for 24 hrs by MTT assay; assay type: toxicity, cell-based
[9] = Phototoxicity against human HT-29 cells assessed as inhibition of cell growth incubated for 24 hrs measured under normoxia conditions and after one-photon excitation upon irradiation with light at 520 nm, 200 mW/cm2 for 10 mins by MTT assay; assay type: functional, cell-based; settings: HT-29, light or radiation study
[10] = Phototherapeutic index, ratio of IC50 for cytotoxicity against human A549 cells measured under normoxia conditions to IC50 for phototoxicity against human A549 cells measured under normoxia conditions and after one-photon excitation upon irradiation with light at 520 nm, 200 mW/cm2 for 10 mins; assay type: functional
A549 [11] = experiment: Cytotoxicity against human A549 cells assessed as inhibition of cell growth incubated for 24 hrs measured under hypoxia conditions by MTT assay; assay type: functional, cell-based; settings: A549, 24 h
[12] = Phototoxicity against human A549 cells assessed as inhibition of cell growth incubated for 24 hrs measured under hypoxia conditions and after two-photon excitation upon irradiation with light at 808 nm, 200 mW/cm2 for 10 mins by MTT assay; assay type: functional, cell-based; settings: A549, light or radiation study
[13] = Phototherapeutic index, ratio of IC50 for cytotoxicity against human A549 cells measured under hypoxia conditions to IC50 for phototoxicity against human A549 cells measured under hypoxia conditions and after one-photon excitation upon irradiation with light at 520 nm, 200 mW/cm2 for 10 mins; assay type: functional
[14] = Selectivity index, ratio of IC50 for cytotoxicity against human HFL1 cells measured under normoxia conditions to IC50 for phototoxicity against human A549 cells measured under normoxia conditions and after one-photon excitation upon irradiation with light at 520 nm, 200 mW/cm2 for 10 mins; assay type: toxicity, cell-based; settings: HFL1 cells versus A549 cells, read-out: Ratio IC50
[15] = Selectivity index, ratio of IC50 for cytotoxicity against human HFL1 cells measured under normoxia conditions to IC50 for cytotoxicity against human A549 cells measured under normoxia conditions; assay type: toxicity, cell-based; settings: HFL1 cells versus A549 cells, read-out: Ratio IC50
A549 [16] = experiment: Induction of apoptosis in human A549 cells assessed as increase in Bax expression measured upon light irradiation by western blot analysis relative to control; assay type: functional
[17] = Drug uptake in human A549 cells assessed as localization in mitochondria by measuring appearance of yellow fluorescence by Hoechst33342/MitoTracker dye based confocal laser scanning microscopic analysis; assay type: ADME
A549 [18] = experiment: Induction of ROS generation in human A549 cells assessed as intracellular ROS level measured under normoxia conditions by DCFH-DA staining based fluorescence analysis; assay type: functional, cell-based
A549 [19] = experiment: Induction of ROS generation in human A549 cells assessed as intracellular singlet oxygen level measured under normoxia conditions by SOSG probe based fluorescence analysis; assay type: functional, cell-based
A549 [20] = experiment: Photosensitizing ability of the compound in human A549 cells assessed as increase in intracellular superoxide generation by measuring increase in fluorescence intensity measured upon light irradiation under normoxia conditions by DHE probe based fluorescence analysis relative to FLI in cells without irradiation; assay type: functional
A549 [21] = experiment: Photosensitizing ability of the compound in human A549 cells assessed as increase in intracellular superoxide generation by measuring increase in fluorescence intensity measured upon light irradiation under hypoxia conditions by DHE probe based fluorescence analysis; assay type: functional, cell-based
A549 [22] = experiment: Induction of apoptosis in human A549 cells assessed as necrotic cells measured under dark conditions by AnnexinV-FITC/PI staining based flow cytometric analysis (reference value: 0.031%); assay type: functional
A549 [23] = experiment: Induction of apoptosis in human A549 cells assessed as viable cells measured upon light irradiation by AnnexinV-FITC/PI staining based flow cytometric analysis (reference value: 98.4%); assay type: functional
A549 [24] = experiment: Induction of apoptosis in human A549 cells assessed as reduction in Bcl-2 expression measured upon light irradiation by western blot analysis relative to control; assay type: functional
A549 [25] = experiment: Induction of ferroptosis in human A549 cells assessed as increase in lipid peroxidation by measuring decrease in GSH level measured upon irradiation relative to control; assay type: functional
A549 [26] = experiment: Induction of autophagy in human A549 cells assessed as large circular vesicles engulfing small particles measured upon light irradiation by transmission electron microscopy; assay type: functional, cell-based
A549 [27] = experiment: Induction of autophagy in human A549 cells assessed as increase in active membrane bound form, […] expression measured upon light irradiation by western blot analysis relative to control; assay type: functional
A549 [28] = experiment: Induction of autophagy in human A549 cells assessed as increase in Beclin-I expression measured upon light irradiation by western blot analysis relative to control; assay type: functional
A549 [29] = experiment: In vivo photodynamic therapy based antitumor activity against human A549 cells xenografted in mouse assessed as tumor growth inhibition administered intratumorally on day 0 and 7 and measured on day 15; assay type: functional; settings: route it(Intratumoral); time 15 day
[30] = Toxicity against mouse xenografted with human A549 cells assessed as changes in body weight administered intratumorally on day 0 and 7 and measured for 15 days; settings: in vivo, other, 360 h, route it(Intratumoral), time 15 day
[31] = Toxicity against mouse xenografted with human A549 cells assessed as changes in biochemical indicators administered intratumorally followed by exposure to light on day 0 and 7 and measured on day 15; settings: in vivo, other, 360 h, route it(Intratumoral), time 15 day
[32] = Photosensitizing ability of the compound in methanol assessed as singlet oxygen production by measuring quantum yield upon irradiation by DPBF based assay relative to KAKQ; assay type: functional
[33] = Photosensitizing ability of the compound assessed as superoxide radical production upon irradiation by DHE probe based assay relative to KNKQ; assay type: functional
[34] = Photosensitizing ability of the compound assessed as superoxide radical production upon irradiation by DHE probe based assay relative to KAKQ; assay type: functional
[35] = Photosensitizing ability of the compound assessed as hydroxyl radical production upon irradiation by HPF probe based assay relative to control; assay type: functional
[36] = Photosensitizing ability of the compound assessed as hydroxyl radical production upon irradiation by HPF probe based assay relative to KNKQ; assay type: functional
A549 [37] = experiment: Induction of apoptosis in human A549 cells measured upon light irradiation by AnnexinV-FITC/PI staining based flow cytometric analysis relative to RuB; assay type: functional

Stability [6]: Stable | Drug uptake [17]: Active
Compound: CCn1c2ccc(/C=C/c3cc[n+](C)c4ccccc34)cc2c2cc(N(c3ccccc3)c3ccccc3)ccc21.[I-]
fold change (FC) (A549 [1]): ~100 | TIME [2]: < 0.133 h | Activity [3]: Active | Activity [4]: Active | Activity [5]: Active | inhibition (INH) [7]: 24.4% | IC50 (HT-29): 1480 nM | IC50 at 24 h [8]: 8.91 µM | IC50 [9]: 29 nM | Ratio IC50 [10]: 54 | IC50 (A549 [11]): 1970 nM | IC50 [12]: 200 nM | Ratio IC50 [13]: 46 | selectivity ratio at 10 min [14]: 330 | selectivity ratio [15]: 6 | fold change (FC) (A549 [16]): 5 | Activity (A549 [18]): inactive | Activity (A549 [19]): inactive | fold change (FC) (A549 [20]): 4 | Activity (A549 [21]): Active | Activity (A549 [22]): 0.85% | Activity (A549 [23]): 7.29% | fold change (FC) (A549 [24]): ~3 | fold change (FC) (A549 [25]): 100 | Activity (A549 [26]): Active | fold change (FC) (A549 [27]): 2 | fold change (FC) (A549 [28]): 2 | TGI (A549 [29]): 70.6% | Activity [30]: Non-toxic | Activity [31]: Non-toxic | fold change (FC) [32]: 3 | fold change (FC) [33]: 8 | fold change (FC) [34]: 8 | fold change (FC) [35]: 60 | fold change (FC) [36]: 3 | fold change (FC) (A549 [37]): 14
